In US8802866B2, “Pyridinylimidazolone derivatives for the inhibition of PI3 kinases” (Merck Patent GmbH, priority 2009, dated 2014):

What was measured:
[1] = target: DNA-PK protein complex (Homo sapiens, UniProt P78527); assay: Biochemical DNA-PK assay (FlashPlate)
Method: The kinase assay is carried out in […] microtitre FlashPlates®, coated with streptavidin. […] The reaction is stopped by addition of 50 μl/well of 200 mM EDTA. After incubation for 30 minutes, the liquids are removed at room temperature. Each well is washed three times with 100 μl of 0.9% NaCl solution. Non-specific reaction (blank) is determined using a proprietary kinase inhibitor (10 μM). The radioactivity is measured by means of a Topcount. […] Todd Eary, J. G. Schiro, H. Huang, L. E. Burgess, E. A. Kesicki, and J. Halbrook.

[2] = target: PI3Kbeta (Homo sapiens, UniProt P42338); assay: Biochemical PI3Kbeta assay (neomycin SPA, lipid phosphorylation); details: human recombinant GST-PI3K
Sequence of PI3Kbeta (P42338 whole entry): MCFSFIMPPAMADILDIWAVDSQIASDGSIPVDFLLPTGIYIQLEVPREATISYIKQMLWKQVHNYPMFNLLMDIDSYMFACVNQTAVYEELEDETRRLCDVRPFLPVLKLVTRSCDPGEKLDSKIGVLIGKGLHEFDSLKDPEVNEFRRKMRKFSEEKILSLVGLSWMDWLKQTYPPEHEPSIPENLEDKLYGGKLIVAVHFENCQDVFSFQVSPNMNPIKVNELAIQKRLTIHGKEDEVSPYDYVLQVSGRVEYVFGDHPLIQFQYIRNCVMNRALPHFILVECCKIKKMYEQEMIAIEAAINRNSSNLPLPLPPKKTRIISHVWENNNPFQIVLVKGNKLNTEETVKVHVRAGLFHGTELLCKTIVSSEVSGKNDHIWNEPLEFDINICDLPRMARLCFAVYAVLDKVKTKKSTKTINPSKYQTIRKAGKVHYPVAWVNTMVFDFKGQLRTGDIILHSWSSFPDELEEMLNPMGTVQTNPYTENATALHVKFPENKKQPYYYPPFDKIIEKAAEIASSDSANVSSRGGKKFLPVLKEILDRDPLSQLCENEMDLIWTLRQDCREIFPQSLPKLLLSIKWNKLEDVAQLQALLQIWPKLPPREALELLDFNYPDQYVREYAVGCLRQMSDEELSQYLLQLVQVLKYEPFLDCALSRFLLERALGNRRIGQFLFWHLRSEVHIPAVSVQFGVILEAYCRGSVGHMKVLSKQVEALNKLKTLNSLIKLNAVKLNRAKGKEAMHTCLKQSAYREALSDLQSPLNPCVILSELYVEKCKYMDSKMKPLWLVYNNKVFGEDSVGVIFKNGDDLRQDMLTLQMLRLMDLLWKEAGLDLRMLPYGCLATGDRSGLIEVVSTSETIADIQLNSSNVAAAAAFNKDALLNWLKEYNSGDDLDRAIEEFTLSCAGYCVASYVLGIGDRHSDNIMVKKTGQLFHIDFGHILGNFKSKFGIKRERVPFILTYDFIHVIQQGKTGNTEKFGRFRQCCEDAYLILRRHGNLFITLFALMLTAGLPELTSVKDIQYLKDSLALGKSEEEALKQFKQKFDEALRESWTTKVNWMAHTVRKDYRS
Sequence of PI3Kbeta (P27986 whole entry partner): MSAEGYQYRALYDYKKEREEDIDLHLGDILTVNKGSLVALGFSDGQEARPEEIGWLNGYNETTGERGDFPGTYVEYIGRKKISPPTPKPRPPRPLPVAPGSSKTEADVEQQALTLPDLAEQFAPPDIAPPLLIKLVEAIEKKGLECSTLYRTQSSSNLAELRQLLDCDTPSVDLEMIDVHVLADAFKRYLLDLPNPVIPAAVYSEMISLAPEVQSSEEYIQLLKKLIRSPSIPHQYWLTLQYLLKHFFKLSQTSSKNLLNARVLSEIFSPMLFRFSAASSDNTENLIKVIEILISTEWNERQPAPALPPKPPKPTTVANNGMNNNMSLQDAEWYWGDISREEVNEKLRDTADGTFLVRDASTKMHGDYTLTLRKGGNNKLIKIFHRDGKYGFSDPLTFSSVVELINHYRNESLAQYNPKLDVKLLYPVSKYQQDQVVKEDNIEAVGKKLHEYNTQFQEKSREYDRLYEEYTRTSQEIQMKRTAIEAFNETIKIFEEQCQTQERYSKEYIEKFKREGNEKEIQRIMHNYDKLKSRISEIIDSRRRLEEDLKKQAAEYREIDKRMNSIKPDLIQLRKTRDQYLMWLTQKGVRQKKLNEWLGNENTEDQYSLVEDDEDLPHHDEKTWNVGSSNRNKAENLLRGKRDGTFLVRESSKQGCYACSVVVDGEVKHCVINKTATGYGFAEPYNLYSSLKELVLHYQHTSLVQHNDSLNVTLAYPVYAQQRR
Method: (§1) The efficacy of the compounds according to the invention in the inhibition of PI3K-induced lipid phosphorylation can be investigated in the following binding assay. The assay combines scintillation proximity assay (SPA) technology (Amersham) with the ability of neomycin (a polycationic antibiotic) to bind phospholipids with high affinity and specificity. […] The coating of SPA beads with neomycin allows the detection of phosphorylated lipid substrates after incubation with recombinant PI3K and radioactive ATP in the same well by trapping the radioactive phospholipids by the SPA beads owing to their specific binding to neomycin. […] After incubation at room temperature for 120 minutes with gentle stirring, the reaction was stopped by addition of 200 μl of a solution comprising 250 μg of neomycin-coated PVT-SPA beads, ATP 60 mM and EDTA 6.2 mM in PBS. The assay is incubated at room temperature for a further 60 minutes with gentle stirring in order to enable binding of the phospholipids to the neomycin-SPA beads. After precipitation of the neomycin-coated PVT-SPA beads over 5 minutes at 1500×g, radioactive Ptdlns(3)P is quantified by scintillation counting in a Wallac Micro-Beta™ plate counter.

[3] = system: PI3K-dependent phosphorylation of PKB at Serin 473 in PC3 cells; assay: Cellular PI3K assay (P-S473-PKB Luminex assay in PC3 cells); type: cell-based; details: Homo sapiens, PC-3, 0.5 h; PC3 cells, 30 min, serum-free, P-S473-PKB; read-out: IC50 (cell)
Method: The cellular assay for determination of the P-S473-PKB level is carried out as a Luminex assay in 96-well format in PC3 cells.
PC3 cells are sown out with 20,000 cells per well in 100 μl medium (45% […]/45% Ham's F12/10% FCS) and incubated on the following day for 30 min with a serial dilution of the test substance (7 concentrations) under serum-free conditions. The cells are subsequently lysed using 90 μl of lysis buffer (20 mM Tris/HCl pH 8.0, 150 mM NaCl, 1% NP40, 10% glycerol, 1% phosphatase inhibitor I, 1% phosphatase inhibitor II, 0.1% protease inhibitor cocktail III, 0.01% benzonase) per well, and the lysates are separated off from insoluble cell constituents by means of centrifugation through a 96-well filter plate (0.65 μm). The lysates are incubated overnight at 4° C. with shaking with Luminex beads to which an anti-total PKB antibody is coupled. The detection is carried out on the following day by addition of a P-S473-PKB antibody and a species-specific PE-labelled secondary antibody. The detection of P-S473-PKB is carried out by measurement in a Luminex100 instrument by determination of 100 events per cavity in a measurement time of 60 sec.

[4] = target: PI3Kalpha (Homo sapiens, UniProt P42336); assay: Biochemical PI3Kalpha assay (neomycin SPA, lipid phosphorylation); details: human recombinant GST-PI3K
Sequence of PI3Kalpha (P42336 whole entry): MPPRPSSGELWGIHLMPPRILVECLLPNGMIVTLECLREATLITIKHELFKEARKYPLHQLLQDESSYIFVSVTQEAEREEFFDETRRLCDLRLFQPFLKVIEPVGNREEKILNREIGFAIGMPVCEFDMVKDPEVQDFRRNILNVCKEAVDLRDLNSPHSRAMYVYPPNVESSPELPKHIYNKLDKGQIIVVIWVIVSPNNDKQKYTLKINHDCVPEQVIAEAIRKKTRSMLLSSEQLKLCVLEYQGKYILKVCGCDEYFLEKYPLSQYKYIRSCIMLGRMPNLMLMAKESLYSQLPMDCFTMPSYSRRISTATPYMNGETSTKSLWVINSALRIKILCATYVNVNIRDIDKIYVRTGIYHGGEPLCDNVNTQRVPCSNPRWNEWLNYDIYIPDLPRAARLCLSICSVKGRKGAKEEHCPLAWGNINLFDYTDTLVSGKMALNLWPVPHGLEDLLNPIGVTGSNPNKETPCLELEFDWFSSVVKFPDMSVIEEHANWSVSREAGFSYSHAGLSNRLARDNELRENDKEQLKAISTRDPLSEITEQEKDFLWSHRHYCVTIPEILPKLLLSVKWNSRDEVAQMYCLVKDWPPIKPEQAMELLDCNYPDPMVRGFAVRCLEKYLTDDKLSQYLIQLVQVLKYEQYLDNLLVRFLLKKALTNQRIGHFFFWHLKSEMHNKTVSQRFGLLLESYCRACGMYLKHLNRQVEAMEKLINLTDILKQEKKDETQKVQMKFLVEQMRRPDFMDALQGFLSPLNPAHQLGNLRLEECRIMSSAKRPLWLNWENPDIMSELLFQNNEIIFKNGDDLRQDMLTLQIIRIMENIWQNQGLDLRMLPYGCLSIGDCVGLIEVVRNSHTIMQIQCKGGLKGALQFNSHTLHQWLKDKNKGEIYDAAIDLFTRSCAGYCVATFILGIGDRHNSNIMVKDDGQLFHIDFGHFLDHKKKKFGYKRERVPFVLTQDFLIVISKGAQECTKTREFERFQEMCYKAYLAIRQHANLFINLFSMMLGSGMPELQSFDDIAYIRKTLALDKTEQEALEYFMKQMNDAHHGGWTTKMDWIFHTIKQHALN
Sequence of PI3Kalpha (P27986 whole entry partner): as the sequence (P27986 whole entry partner) above
Method: as §1

IC50 [1] | IC50 [2] | IC50 [3] | IC50 [4] | Structure (SMILES)
0.1 to 10 µM | – | – | – | Cn1cc(-c2cncc(-c3cnc4ccccc4c3)c2)n(-c2ccc(C(C)(C)C#N)cc2)c1=O [Example A2, 2-Methyl-2-{4-[3-methyl-2-oxo-5-(5-quinolin-3-ylpyridin-3-yl)-2,3-dihydroimidazol-1-yl]phenyl}propionitrile]
0.0001 to 0.1 µM | 0.1 to 10 µM | 0.1 to 10 µM | 0.1 to 10 µM | Cn1cc(-c2cc(-c3cnc4c(ccn4C)c3)ccn2)n(-c2ccc(C(C)(C)C#N)cc2)c1=O [Example A54, 2-Methyl-2-(4-{3-methyl-5-[4-(1-methyl-1H-pyrrolo[2,3-b]pyridin-5-yl)pyridin-2-yl]-2-oxo-2,3-dihydroimidazol-1-yl}phenyl)propionitrile]
0.1 to 10 µM | > 10 µM | 0.1 to 10 µM | 0.1 to 10 µM | CC(=O)Nc1ncc(-c2ccnc(-c3cn(C)c(=O)n3-c3cccc(C#N)c3)c2)cc1C(F)(F)F [Example A68, N-{2′-[3-(3-Cyanophenyl)-1-methyl-2-oxo-2,3-dihydro-1H-imidazol-4-yl]-5-trifluoromethyl-[3,4′]bipyridinyl-6-yl}acetamide]
0.1 to 10 µM | 0.1 to 10 µM | 0.1 to 10 µM | 0.1 to 10 µM | Cn1cc(-c2cc(-c3cnc(N)c(C#N)n3)ccn2)n(-c2ccc(C(C)(C)C#N)cc2)c1=O [Example A70, 3-Amino-6-(2-{3-[4-(cyanodimethylmethyl)phenyl]-1-methyl-2-oxo-2,3-dihydro-1H-imidazol-4-yl}pyridin-4-yl)pyrazine-2-carbonitrile]
0.1 to 10 µM | 0.1 to 10 µM | 0.1 to 10 µM | 0.1 to 10 µM | Cn1cc(-c2cc(-c3cnc4[nH]ccc4n3)ccn2)n(-c2ccc(C(C)(C)C#N)cc2)c1=O [Example A78, 2-Methyl-2-(4-{3-methyl-2-oxo-5-[4-(5H-pyrrolo[2,3-b]pyrazin-2-yl)pyridin-2-yl]-2,3-dihydroimidazol-1-yl}phenyl)propionitrile]
0.0001 to 0.1 µM | 0.1 to 10 µM | > 10 µM | 0.1 to 10 µM | Cn1cc(-c2cc(-c3cnc4nccnc4c3)ccn2)n(-c2ccc(C(C)(C)C#N)cc2)c1=O [Example A81, 2-Methyl-2-{4-[3-methyl-2-oxo-5-(4-pyrido[2,3-b]pyrazin-7-ylpyridin-2-yl)-2,3-dihydroimidazol-1-yl]phenyl}propionitrile]
0.0001 to 0.1 µM | 0.1 to 10 µM | 0.1 to 10 µM | 0.1 to 10 µM | CN1CCN(c2ccc(-n3c(-c4cc(-c5cnc(N)c(C(F)(F)F)c5)ccn4)cn(C)c3=O)cc2C#N)CC1 [Example A82, 5-[5-(6-Amino-5-trifluoromethyl-[3,4′]bipyridinyl-2′-yl)-3-methyl-2-oxo-2,3-dihydroimidazol-1-yl]-2-(4-methylpiperazin-1-yl)benzonitrile]
0.1 to 10 µM | > 10 µM | > 10 µM | > 10 µM | CNCc1ccc(-c2ccnc(-c3cn(C)c(=O)n3-c3ccc(C(C)(C)C#N)cc3)c2)cn1 [Example A95, 2-Methyl-2-{4-[3-methyl-5-(6-methylaminomethyl-[3,4′]bipyridinyl-2′-yl)-2-oxo-2,3-dihydroimidazol-1-yl]phenyl}propionitrile]
0.1 to 10 µM | 0.1 to 10 µM | 0.1 to 10 µM | 0.1 to 10 µM | Cn1cc(-c2cc(-c3c[nH]c4ncccc34)ccn2)n(-c2ccc(C(C)(C)C#N)cc2)c1=O [Example A100, 2-Methyl-2-(4-{3-methyl-2-oxo-5-[4-(1H-pyrrolo[2,3-b]pyridin-3-yl)pyridin-2-yl]-2,3-dihydroimidazol-1-yl}phenyl)propionitrile]
0.1 to 10 µM | – | 0.1 to 10 µM | 0.1 to 10 µM | CN1CCN(c2ccc(-n3c(-c4cc(-c5ccc6[nH]ccc6c5)ccn4)cn(C)c3=O)cc2C(F)(F)F)CC1 [Example A102, 4-[4-(1H-Indol-5-yl)pyridin-2-yl]-1-methyl-3-[4-(4-methylpiperazin-1-yl)-3-trifluoromethylphenyl]-1,3-dihydroimidazol-2-one]
0.1 to 10 µM | 0.1 to 10 µM | 0.1 to 10 µM | 0.1 to 10 µM | CN1CCN(c2ccc(-n3c(-c4cc(-c5cnc(N)c(C(F)(F)F)c5)ccn4)cn(C)c3=O)cc2C(F)(F)F)CC1 [Example A103, 4-(6-Amino-5-trifluoromethyl-[3,4′]bipyridinyl-2′-yl)-1-methyl-3-[4-(4-methyl-piperazin-1-yl)-3-trifluoromethylphenyl]-1,3-dihydroimidazol-2-one]
0.0001 to 0.1 µM | – | 0.1 to 10 µM | 0.1 to 10 µM | Cc1cc2cc(-c3ccnc(-c4cn(C)c(=O)n4-c4cccc(Oc5ccccc5)c4)c3)cnc2[nH]1 [Example A104, 1-Methyl-4-[4-(2-methyl-1H-pyrrolo[2,3-b]pyridin-5-yl)pyridin-2-yl]-3-(3-phenoxy-phenyl)-1,3-dihydroimidazol-2-one]
0.1 to 10 µM | – | 0.0001 to 0.1 µM | – | Cn1cc(-c2cc(-c3cnc4[nH]ccc4c3)ccn2)n(-c2ccc(N3CCN(Cc4cccnc4)CC3)c(C(F)(F)F)c2)c1=O [Example A106, 1-Methyl-3-[4-(4-pyridin-3-ylmethylpiperazin-1-yl)-3-trifluoromethylphenyl]-4-[4-(1H-pyrrolo[2,3-b]pyridin-5-yl)pyridin-2-yl]-1,3-dihydroimidazol-2-one]
0.0001 to 0.1 µM | – | 0.1 to 10 µM | – | Cn1cc(-c2cc(-c3cc(F)c(N)c(C(F)(F)F)c3)ccn2)n(-c2ccc(C(C)(C)C#N)cc2)c1=O [Example A107, 2-(4-{5-[4-(4-Amino-3-fluoro-5-trifluoromethylphenyl)pyridin-2-yl]-3-methyl-2-oxo-2,3-dihydroimidazol-1-yl}phenyl)-2-methylpropionitrile]
> 10 µM | > 10 µM | > 10 µM | > 10 µM | COc1ccc(Cn2c(-c3cc(-c4cnc(NC(C)=O)c(C(F)(F)F)c4)ccn3)cn(C)c2=O)cc1 [Example A111, N-{2′-[3-(4-Methoxybenzyl)-1-methyl-2-oxo-2,3-dihydro-1H-imidazol-4-yl]-5-trifluoromethyl-[3,4′]bipyridinyl-6-yl}acetamide]
